The test system of the experiment is cells. The experiment can be described thus: label-free cell assay by optical interference phase microscope. In kind it is cell-based. To be noted: for change in measurement values (phase) depending on concentration, by time: dosed in different concentration, measured by time (FIG. 5). An excerpt: FIG. 4 is a view showing an example of an image of cells photographed by an optical interference phase microscope beneath the transparent medium of the high-throughput label-free cell assay system.
FIG. 5 is a view showing an example of a measurement value by time in the high-throughput label-free cell assay system in a case that picolinic acid and histamine are separately given to cells in different concentration.

Regarding `NCCc1c[nH]cn1` [histamine], the “change in measurement values (phase) depending on concentration, by time” value is listed as “remarkable changes in measurement values depending on concentration were observed”.

On to `O=C(O)c1ccccn1` [picolinic acid], for which the “change in measurement values (phase) depending on concentration, by time” value is recorded as “remarkable changes in measurement values depending on concentration were observed”. The “number of observed cells in optical interference phase image” value (half an hour after dosing, untreated cells showed no change after 30 minutes) is recorded as “remarkably reduced”.
